The assay has as its target T1, human iGluR4 (Homo sapiens, UniProt P48058).
T1 construct: expressed in transfected cells; host or cells: HEK293
Description: Whole-cell voltage clamp potentiation of currents evoked by 1 mM glutamate in HEK293 cells stably expressing human iGluR4. Format: cell-based. The following applies: HEK293 cells stably expressing human iGluR4, voltage-clamped at -60mV, concentration increased in half log units, fit to the Hill equation. The text has this:
HEK293 cells stably expressing human iGluR4 (obtained as described in European Patent Application Publication No. EP-A1-0583917) are used in the electrophysiological characterization of AMPA receptor potentiators. The extracellular recording solution contains (in mM): 140 NaCl, 5 KCl, 10 HEPES, 1 MgCl2, 2 CaCl2, 10 glucose, pH = 7.4 with NaOH, 295 mOsm kg-1. The intracellular recording solution contains (in mM): 140 CsCl, 1 MgCl2, 10 HEPES, (N-[2-hydroxyethyl]piperazine-N1-[2-ethanesulfonic acid]) 10 EGTA (ethylene-bis(oxyethylene-nitrilo)tetraacetic acid), pH = 7.2 with CsOH, 295 mOsm kg-1. With these solutions, recording pipettes have a resistance of 2-3 MΩ. […] Responses to 1 mM glutamate are then determined in the presence of test compound. […]
In order to determine the potency of test compounds, the concentration of the test compound, both in the bathing solution and co-applied with glutamate, is increased in half log units until the maximum effect was seen. […] Reversibility of test compound activity is determined by assessing control glutamate 1mM responses. Once the control responses to the glutamate challenge are re-established, the potentiation of these responses by 100 µM cyclothiazide is determined by its inclusion in both the bathing solution and the glutamate-containing solution. In this manner, the efficacy of the test compound relative to that of cyclothiazide can be determined.

SMILES strings stand for the structures. pEC50: −log10 of the molar value.

T1 sequence (P48058 21-902): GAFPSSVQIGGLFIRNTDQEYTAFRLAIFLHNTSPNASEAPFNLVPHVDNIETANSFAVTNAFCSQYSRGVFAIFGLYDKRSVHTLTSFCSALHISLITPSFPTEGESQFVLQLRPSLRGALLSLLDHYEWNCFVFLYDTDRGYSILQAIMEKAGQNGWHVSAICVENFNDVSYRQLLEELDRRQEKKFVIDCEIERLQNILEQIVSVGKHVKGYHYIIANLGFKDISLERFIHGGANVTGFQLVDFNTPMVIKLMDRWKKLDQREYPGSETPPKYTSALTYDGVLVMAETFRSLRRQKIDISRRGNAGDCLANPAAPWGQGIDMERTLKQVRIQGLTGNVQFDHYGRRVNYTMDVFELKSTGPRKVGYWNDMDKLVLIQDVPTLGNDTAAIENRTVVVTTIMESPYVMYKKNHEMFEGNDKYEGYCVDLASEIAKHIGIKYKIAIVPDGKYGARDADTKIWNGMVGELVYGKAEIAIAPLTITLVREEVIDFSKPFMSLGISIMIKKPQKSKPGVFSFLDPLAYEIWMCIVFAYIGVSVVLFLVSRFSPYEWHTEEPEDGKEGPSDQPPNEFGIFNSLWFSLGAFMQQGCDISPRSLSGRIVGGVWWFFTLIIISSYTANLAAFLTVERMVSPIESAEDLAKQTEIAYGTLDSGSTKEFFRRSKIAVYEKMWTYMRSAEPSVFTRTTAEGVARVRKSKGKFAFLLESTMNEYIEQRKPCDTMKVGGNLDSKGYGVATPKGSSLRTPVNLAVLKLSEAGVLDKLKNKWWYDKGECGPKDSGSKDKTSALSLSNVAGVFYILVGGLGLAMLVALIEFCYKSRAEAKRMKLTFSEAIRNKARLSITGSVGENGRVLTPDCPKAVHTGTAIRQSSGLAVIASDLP

A word on the pEC50: it is the negative decadic logarithm of the EC50, by convention in mol/L. For `CC(C)S(=O)(=O)Nc1ccccc1-c1ccc(-c2ccc(-c3nnn[nH]3)cc2)cc1` [Example 77, Propane-2-sulfonic acid [4"-(1H-tetrazol-5-yl)-[1,1';4',1"]terphenyl-2-yl]-amide], the pEC50 was 6.35.

Source of the values: patent publication EP1893597B1, “AMPA RECEPTOR POTENTIATORS” (ELI LILLY AND COMPANY, priority 2005, dated 2006).
